One test has as its system L. Casei. In words: Bacterial killing assay (PDT, Example 5). The test is classed as cell-based. Particulars: 22 μM erythrosine in BHI broth. Here is the method: L. Casei is a known constituent of gut microflora. A growth curve for L. Casei both in the presence and without erythrosine was prepared using broth turbidity measured by spectrophotometry using a Shimadzu UV-1601 UV-Visible spectrophotometer. L. Casei were grown in Brain Heart Infusion (BHI) liquid broth at 37° C. to stationary phase overnight. A fresh volume of BHI broth containing erythrosine released from the scaffold at a concentration known to be effective for PDT was inoculated using the stationary phase culture and incubated at 37° C. in a shaking incubator. Bacteria were also incubated in BHI with non scaffold derived erythrosine, BHI containing an equal concentration of scaffold breakdown products from a non erythrosine containing scaffold or blank scaffold and BHI alone with no additives. Since bacteria are most sensitive to PDT during log phase this was chosen as the time most appropriate for irradiation therefore irradiation took place 2 hours 30 minutes after inoculation. […] Following irradiation bacterial viability was assessed by spreading broth samples on Columbia blood agar plates and following 48 hour incubation counting the number of visible colonies. The number of colony forming units (cfu)/ml of broth were then calculated. […]

In another test the test system is L casei. In words: L casei cultures in BHI with additives, foil-wrapped or exposed to light (Example 16). The test is classed as cell-based. As to the method:
Pieces of blank PGA scaffold and PGA scaffold containing 5 w/w % erythrosine B were incubated overnight in BHI and the scaffold was removed before adding L Casei culture, the erythrosine B concentration was measured and adjusted to 22 μM. For each of the ‘media’ shown in Table 1, two tubes of culture, one tube wrapped in foil, were exposed to light for 30 minutes. After exposure to light, serial dilutions were made of the cultures in BHI which were then grown on Columbian blood agar plates for 48 hours. The number of colonies on the plates was then counted and those having between 30 and 300 colonies were used to calculate the cfu/ml for the cultures. […] PDT (erythrosine plus light) causes 6 logs of cell kill, whereas in the presence of glycolic acid released from the scaffold (or added to a similar concentration out of a bottle), the amount of cell killing doubles or more.

Where a name gives a salt, the structure may show the parent alone.

On to `O=C1OC2(c3ccccc31)c1cc(I)c(O)c(I)c1Oc1c2cc(I)c(O)c1I` [Erythrosin B, disodium salt of 2′,4,′5,′7′-tetraiodofluorescein], for which the log10 kill in the test with L. Casei (10 minutes irradiation) amounted to 6.1 log10; with L. Casei (30 minute irradiation), 6.4 log10. The “cell kill by PDT (erythrosine plus light)” value in the test with L casei (22 μM, light for 30 minutes) was determined as 6 logs. Besides, the “colony forming units, culture tubes wrapped in foil and exposed to light (F)” value in the test with L casei (BHI, 30 minutes, foil-wrapped, erythrosin 22 μM where present) is listed as 2.75 × 10^8 cfu/ml. The “colony forming units, culture tubes exposed to light (L)” value in the test on L casei (BHI, exposed to light for 30 minutes, erythrosin 22 μM where present) is 2.1 × 10^2 cfu/ml.

The record behind these values is patent US20120015331A1, “SCAFFOLD” (priority 2009, published 2012).
